Here are results for two compounds from US7220772B2, “Pyrazole derivatives” (Pfizer, Inc., priority 2003, dated 2007).

In general, melting point refers to the temperature of the solid-liquid transition. What is called IC50 is the point on the concentration scale where inhibition reaches its midpoint.

Series [1] concerns the target T1, HIV-1 reverse transcriptase (Human immunodeficiency virus type 1 group M subtype B, UniProt P04585).
T1 construct: purified recombinant HIV-1 reverse transcriptase (RT, EC, 2.7.7.49) obtained by expression in Escherichia Coli; made in house; host or cells: Escherichia coli
Description: Inhibition of HIV-1 Reverse Transcriptase Enzyme. The format is biochemical. To be noted: purified recombinant HIV-1 RT expressed in Escherichia Coli; [3H]-SPA or [3H]-flashplate enzyme assay; 5% final DMSO. From the text:
The activity of the compounds of the invention as reverse transcriptase inhibitors may be measured using the following assay.
Inhibition of HIV-1 Reverse Transcriptase Enzyme
Using purified recombinant HIV-1 reverse transcriptase (RT, EC, 2.7.7.49) obtained by expression in Escherichia Coli, a 96-well plate assay system is established for assaying a large number of samples using either the Poly(rA)-oligo(dT) Reverse Transcriptase [3H]-SPA enzyme assay system (Amersham NK9020) or the [3H]-flashplate enzyme assay system (NEN-SMP 103) and following the manufacturer's recommendations. The compounds are dissolved in 100% DMSO and diluted with the appropriate buffer to a 5% final DMSO concentration. The inhibitory activity is expressed in percent inhibition relative to DMSO control.

Turning to `CCc1n[nH]c(CCOc2ccc(S(C)(=O)=O)cc2)c1Oc1cc(C#N)cc(C#N)c1` [Example 3, 5-[(3-Ethyl-5-{2-[4-(methylsulfonyl)phenoxy]ethyl}-1H-pyrazol-4-yl)oxy]isophthalonitrile], the melting point was in the range of 88 to 90 °C. Moreover, in series [1], the 50% inhibitory concentration (IC50) came out at 0.045 µM.
Regarding `CCc1n[nH]c(CCOc2ccc(SC)cc2)c1Oc1cc(C#N)cc(C#N)c1` [Example 1, 5-[(3-Ethyl-5-{2-[4-(methylsulfanyl)phenoxy]ethyl}-1H-pyrazol-4-yl)oxy]isophthalonitrile], the IC50 in series [1] stood at 0.002 µM.
